Experimental data from ChEMBL document CHEMBL1201862, “PubChem BioAssay data set” (2004).
Calls of active or inactive are those of the source. Cut-off read from the data, not from the text of the source: actives have a measured IC50 and inactives only a lower limit.

Columns and labels:
Format in all cases: functional
[1] = molecular target: T1, Sentrin-specific protease 6 (Homo sapiens, UniProt Q9GZR1);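 note: Luminescence-based dose-response confirmatory assay of SENP6 inhibition, following up an ultra-high-throughput screen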
T1 sequence (Q9GZR1 whole entry): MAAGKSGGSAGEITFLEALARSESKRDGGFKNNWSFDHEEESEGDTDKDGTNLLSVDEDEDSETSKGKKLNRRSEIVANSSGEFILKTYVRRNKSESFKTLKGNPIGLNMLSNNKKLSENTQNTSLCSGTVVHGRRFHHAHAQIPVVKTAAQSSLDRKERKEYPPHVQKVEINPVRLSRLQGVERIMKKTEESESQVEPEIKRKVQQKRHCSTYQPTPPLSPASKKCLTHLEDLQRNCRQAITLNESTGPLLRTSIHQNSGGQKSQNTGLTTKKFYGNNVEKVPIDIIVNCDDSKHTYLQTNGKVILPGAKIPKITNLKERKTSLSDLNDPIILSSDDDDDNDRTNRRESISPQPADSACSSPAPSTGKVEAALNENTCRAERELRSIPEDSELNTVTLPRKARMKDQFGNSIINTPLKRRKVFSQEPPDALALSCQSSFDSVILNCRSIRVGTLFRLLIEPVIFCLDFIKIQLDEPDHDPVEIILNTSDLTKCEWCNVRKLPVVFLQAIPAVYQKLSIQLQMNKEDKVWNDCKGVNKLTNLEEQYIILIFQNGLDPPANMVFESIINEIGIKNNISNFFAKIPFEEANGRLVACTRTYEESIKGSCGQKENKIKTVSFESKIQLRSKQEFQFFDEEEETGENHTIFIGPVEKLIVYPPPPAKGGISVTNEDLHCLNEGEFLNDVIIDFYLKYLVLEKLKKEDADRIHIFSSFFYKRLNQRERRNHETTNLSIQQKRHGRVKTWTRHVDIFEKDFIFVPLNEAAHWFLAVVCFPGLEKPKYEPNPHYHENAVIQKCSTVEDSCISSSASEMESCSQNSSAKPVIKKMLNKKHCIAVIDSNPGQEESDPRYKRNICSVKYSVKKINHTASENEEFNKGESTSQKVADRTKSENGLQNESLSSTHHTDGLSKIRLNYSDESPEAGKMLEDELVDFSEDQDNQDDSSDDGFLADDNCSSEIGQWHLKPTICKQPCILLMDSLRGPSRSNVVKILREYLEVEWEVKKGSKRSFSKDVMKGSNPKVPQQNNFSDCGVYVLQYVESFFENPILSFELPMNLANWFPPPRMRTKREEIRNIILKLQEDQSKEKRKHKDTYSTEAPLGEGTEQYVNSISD

[2] = molecular target: T2, Sentrin-specific protease 8 (Homo sapiens, UniProt Q96LD8);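 note: luminescence read-out of SENP8 inhibition, dose-response confirmation following an ultra-high-throughput screen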
T2 sequence (Q96LD8 whole entry): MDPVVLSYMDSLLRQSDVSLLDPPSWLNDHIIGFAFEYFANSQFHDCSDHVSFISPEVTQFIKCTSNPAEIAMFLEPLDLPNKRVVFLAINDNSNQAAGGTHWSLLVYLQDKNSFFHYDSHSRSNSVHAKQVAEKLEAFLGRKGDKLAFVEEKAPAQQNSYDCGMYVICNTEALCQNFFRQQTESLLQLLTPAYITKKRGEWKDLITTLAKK

Caspase-3 = molecular target: T3, Caspase-3 (Homo sapiens, UniProt P42574);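 note: Dose-response selectivity test against caspase-3 for candidate inhibitors of sentrin-specific proteases (SENPs)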
T3 sequence (P42574 whole entry): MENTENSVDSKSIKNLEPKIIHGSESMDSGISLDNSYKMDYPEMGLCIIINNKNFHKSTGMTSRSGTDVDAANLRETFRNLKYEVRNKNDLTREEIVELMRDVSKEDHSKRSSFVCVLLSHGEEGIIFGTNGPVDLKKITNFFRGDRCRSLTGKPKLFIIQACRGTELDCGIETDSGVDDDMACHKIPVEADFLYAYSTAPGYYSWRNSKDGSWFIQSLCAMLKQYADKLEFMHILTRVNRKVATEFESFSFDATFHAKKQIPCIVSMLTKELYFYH

[3] = molecular target: T4, Sentrin-specific protease 7 (Homo sapiens, UniProt Q9BQF6);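 note: Luminescence-based dose-response confirmation of ultra-high-throughput screening hits, measuring inhibition of SENP7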
T4 sequence (Q9BQF6 whole entry): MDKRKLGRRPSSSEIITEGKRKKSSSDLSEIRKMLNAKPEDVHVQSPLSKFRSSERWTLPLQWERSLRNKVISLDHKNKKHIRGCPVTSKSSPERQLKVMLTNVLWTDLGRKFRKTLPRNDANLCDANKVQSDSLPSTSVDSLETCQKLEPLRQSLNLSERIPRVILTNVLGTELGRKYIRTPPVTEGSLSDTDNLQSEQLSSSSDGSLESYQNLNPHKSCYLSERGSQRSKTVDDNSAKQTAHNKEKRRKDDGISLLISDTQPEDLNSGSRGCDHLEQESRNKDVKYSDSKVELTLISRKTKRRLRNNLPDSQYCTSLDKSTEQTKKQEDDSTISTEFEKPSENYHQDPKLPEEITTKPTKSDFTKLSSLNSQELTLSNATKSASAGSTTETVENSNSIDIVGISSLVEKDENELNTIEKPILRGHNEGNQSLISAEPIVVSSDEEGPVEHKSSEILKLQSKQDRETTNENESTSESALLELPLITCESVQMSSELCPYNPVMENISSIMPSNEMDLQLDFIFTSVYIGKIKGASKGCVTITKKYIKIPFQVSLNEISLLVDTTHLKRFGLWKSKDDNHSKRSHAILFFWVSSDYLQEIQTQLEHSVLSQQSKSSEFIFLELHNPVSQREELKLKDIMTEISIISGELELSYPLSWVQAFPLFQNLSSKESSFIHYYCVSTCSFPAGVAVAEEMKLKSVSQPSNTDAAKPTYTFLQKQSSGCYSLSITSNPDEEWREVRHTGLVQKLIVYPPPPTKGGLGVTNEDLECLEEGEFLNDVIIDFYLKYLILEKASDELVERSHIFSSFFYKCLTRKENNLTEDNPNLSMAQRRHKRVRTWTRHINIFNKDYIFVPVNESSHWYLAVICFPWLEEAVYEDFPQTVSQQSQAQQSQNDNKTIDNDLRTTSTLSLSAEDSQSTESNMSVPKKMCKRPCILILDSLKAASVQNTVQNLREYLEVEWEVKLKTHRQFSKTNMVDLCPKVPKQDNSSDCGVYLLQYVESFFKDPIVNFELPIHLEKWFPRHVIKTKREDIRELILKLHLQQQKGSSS

Measured: IC50

Nc1c(N2CCCC2)cc(Cl)c2nonc12
active: [1] 3.02 µM | [2] 4.09 µM | Caspase-3 9.05 µM | [3] 4.09 µM

O=C(NNc1cc(N2CCOCC2)nc(N2CCOCC2)n1)c1ccc([N+](=O)[O-])cc1
active: [1] 6.72 µM | [2] 6.99 µM | Caspase-3 32.4 µM | [3] 6.14 µM

Oc1ccc(/N=C/c2ccc(OCc3ccccc3)cc2)cc1
active: [1] 16.4 µM | [2] 24.1 µM | Caspase-3 14.3 µM | [3] 14.6 µM
